# Literature values, collected in US11608532B2, “Precision medicine for treating and preventing suicidality” (Indiana University Research and Technology Corporation, priority 2017, dated 2023).
# Like-named read-outs stand apart in the source and are kept apart here.
# Legend:
# [1] = tested on: individual top biomarkers for suicidality; details: for TNF modulated by drug in opposite direction to suicide: direction of change in suicidality (I) DE/1, (I) AP/1
# [2] = tested on: top male bipolar biomarkers for suicidality; details: for Drugs that Modulate the Biomarker in Opposite Direction to Suicide: (I) in suicidality, male bipolars
# [3] = A. Top Universal Biomarkers, direction of change in suicidality (D), AP/1
# [4] = biomarker HTR2A (5-hydroxytryptamine (serotonin) receptor 2A, G protein-coupled)
# [5] = A. Top Universal Biomarkers, direction of change in suicidality (I), DE/2
# [6] = C. Top Biomarkers in Females, direction of change in suicidality I, DE/2
# [7] = D. Top Biomarkers in Bipolar Disorder, direction of change in suicidality (I), DE/2
# [8] = F. Top Biomarkers in Males with Bipolar Disorder, direction of change in suicidality (I), DE/2
# [9] = D. Top Biomarkers in Bipolar Disorder
# [10] = biomarker BCL2 (B-cell CLL/lymphoma 2)
# [11] = E. Top Biomarkers in Depression, direction of change in suicidality (I), DE/1
# [12] = G. Top Biomarkers in Males with Depression, direction of change in suicidality (D), AP/2
# [13] = B. Top Biomarkers in Males, direction of change in suicidality I, DE/2
# [14] = D. Top Biomarkers in Bipolar Disorder, direction of change in suicidality (D), DE/1
molecule,measurement,setting,value
OCCOCCN1CCN(C2=Nc3ccccc3Sc3ccccc32)CC1 [Quetiapine],IFNG modulated by drug in opposite direction to suicide,[1]; [3],"Quetiapine,"
same,Step 6 Drugs that Modulate the Biomarker in Opposite Direction to Suicide,[1]; [4],Quetiapine
CN1CCN(CCCN2c3ccccc3Sc3ccc(S(=O)(=O)N(C)C)cc32)CC1 [thioproperazine],HTR2A modulated by drug in opposite direction to suicide,[1]; [5],"thioproperazine,"
same,HTR2A modulated by drug in opposite direction to suicide,[1]; [6],"thioproperazine,"
same,HTR2A modulated by drug in opposite direction to suicide,[1]; [7],"thioproperazine,"
same,HTR2A modulated by drug in opposite direction to suicide,[1]; [8],"thioproperazine,"
CN(C)CCC=C1c2ccccc2CCc2ccccc21 [amitriptyline],Drugs that Modulate the Biomarker in Opposite Direction to Suicide,"[2]; HTR2A, 244130_at",amitriptyline
CN[C@H]1CC[C@@H](c2ccc(Cl)c(Cl)c2)c2ccccc21 [Sertraline],TNF modulated by drug in opposite direction to suicide,[1]; [9],Sertraline
OCCN1CCN(CCCN2c3ccccc3C=Cc3ccccc32)CC1 [opipramol],HTR2A modulated by drug in opposite direction to suicide,[1]; [5],"opipramol,"
same,HTR2A modulated by drug in opposite direction to suicide,[1]; [6],"opipramol,"
same,HTR2A modulated by drug in opposite direction to suicide,[1]; [7],"opipramol,"
same,HTR2A modulated by drug in opposite direction to suicide,[1]; [8],"opipramol,"
Oblimersen,Step 6 Drugs that Modulate the Biomarker in Opposite Direction to Suicide,[1]; [10],Oblimersen
golimumab,TNF modulated by drug in opposite direction to suicide,[1]; [9],"golimumab,"
"O=C(CCCN1CCC(O)(c2ccc(Cl)cc2)CC1)c1ccc(F)cc1 [haloperidol, reference compound]",BDNF modulated by drug in opposite direction to suicide,[1]; [6],Haloperidol
same,BDNF modulated by drug in opposite direction to suicide,[1]; [11],Haloperidol
same,Drugs that modulate the biomarker AGA,"[1]; biomarker AGA (aspartyl glucosaminidase), Table 20 CFE drug-evidence",Haloperidol
same,Step 6 Drugs that Modulate the Biomarker in Opposite Direction to Suicide,[1]; biomarker AGA (aspartylglucosaminidase),Haloperidol
same,Step 6 Drugs that Modulate the Biomarker in Opposite Direction to Suicide,[1]; biomarker AKAP13 (A kinase (PRKA) anchor protein 13),Haloperidol
same,Drugs that modulate the biomarker RIMS3,"[1]; biomarker RIMS3 (regulating synaptic membrane exocytosis 3), Table 20 CFE drug-evidence",Haloperidol
O=C1CCc2ccc(OCCCCN3CCN(c4cccc(Cl)c4Cl)CC3)cc2N1 [Aripiprazole],IFNG modulated by drug in opposite direction to suicide,[1]; [3],Aripiprazole
same,Step 6 Drugs that Modulate the Biomarker in Opposite Direction to Suicide,[1]; [4],Aripiprazole
O=C1CCC(N2C(=O)c3ccccc3C2=O)C(=O)N1 (centres unmarked) [thalidomide],TNF modulated by drug in opposite direction to suicide,[1]; [9],thalidomide
CCO [Alcohol],Drugs that Modulate the Biomarker in Opposite Direction to Suicide (direction of change by drug),[2],(D) and (I)
CC(=O)O[C@H]1C(=O)[C@@]2(C)[C@H]([C@H](OC(=O)c3ccccc3)[C@]3(O)C[C@H](OC(=O)[C@H](O)[C@@H](NC(=O)c4ccccc4)c4ccccc4)C(C)=C1C3(C)C)[C@]1(OC(C)=O)CO[C@@H]1C[C@@H]2O [Paclitaxel],Step 6 Drugs that Modulate the Biomarker in Opposite Direction to Suicide,[1]; [10],Paclitaxel
CN1CCN(c2ccc(C(=O)Nc3n[nH]c4ccc(Cc5cc(F)cc(F)c5)cc34)c(NC3CCOCC3)c2)CC1 [entrectinib],NTRK3 modulated by drug in opposite direction to suicide,[1]; [6],"entrectinib,"
same,NTRK3 modulated by drug in opposite direction to suicide,"[1]; E. Top Biomarkers in Depression, direction of change in suicidality (I) AP/2, (I) DE/1","entrectinib,"
same,NTRK3 modulated by drug in opposite direction to suicide,[1]; [12],"entrectinib,"
infliximab,TNF modulated by drug in opposite direction to suicide,[1]; [9],"infliximab,"
CNCCC(Oc1ccc(C(F)(F)F)cc1)c1ccccc1 (centres unmarked) [Fluoxetine],BDNF modulated by drug in opposite direction to suicide,[1]; [6],Fluoxetine
same,ACP1 modulated by drug in opposite direction to suicide,"[1]; E. Top Biomarkers in Depression, direction of change in suicidality (D), AP/1",Fluoxetine
same,BDNF modulated by drug in opposite direction to suicide,[1]; [11],Fluoxetine
same,JUN modulated by drug in opposite direction to suicide,[1]; [11],Fluoxetine
same,NTRK3 modulated by drug in opposite direction to suicide,[1]; [12],Fluoxetine
C/C=C(/C)C(=O)O[C@H]1C(C)=C[C@]23C(=O)[C@@H](C=C(CO)[C@@H](O)[C@]12O)[C@H]1[C@@H](C[C@H]3C)C1(C)C [Ingenol mebutate],Drugs that modulate the biomarker PRKCB,"[1]; biomarker PRKCB (protein kinase C, beta), Table 20 CFE drug-evidence",Ingenol mebutate
same,Step 6 Drugs that Modulate the Biomarker in Opposite Direction to Suicide,"[1]; biomarker PRKCI (protein kinase C, iota)",Ingenol
COc1ccc(C(CN(C)C)C2(O)CCCCC2)cc1 (centres unmarked) [Venlafaxine],TNF modulated by drug in opposite direction to suicide,[1]; [9],Venlafaxine
CCc1nn(CCCN2CCN(c3cccc(Cl)c3)CC2)c(=O)n1CCOc1ccccc1 [nefazodone],Drugs that Modulate the Biomarker in Opposite Direction to Suicide,"[2]; HTR2A, 244130_at",nefazodone
etanercept,TNF modulated by drug in opposite direction to suicide,[1]; [9],", etanercept,"
OCCOCCN1CCN(C2=Nc3ccccc3Sc3ccccc32)CC1 [quetiapine],Drugs that Modulate the Biomarker in Opposite Direction to Suicide,"[2]; HTR2A, 244130_at",quetiapine
CN1C[C@H](C(=O)N[C@]2(C)O[C@@]3(O)[C@@H]4CCCN4C(=O)[C@H](Cc4ccccc4)N3C2=O)C[C@@H]2c3cccc4[nH]cc(c34)C[C@H]21 [dihydroergotamine],Drugs that Modulate the Biomarker in Opposite Direction to Suicide,"[2]; HTR2A, 244130_at",dihydroergotamine
CN1CCC(=C2c3ccccc3CCc3cccnc32)CC1 [azatadine],Drugs that Modulate the Biomarker in Opposite Direction to Suicide,"[2]; HTR2A, 244130_at",azatadine
CN1CCc2cccc3c2[C@H]1Cc1ccc(O)c(O)c1-3 [apomorphine],Drugs that Modulate the Biomarker in Opposite Direction to Suicide,"[2]; HTR2A, 244130_at",apomorphine
CN(C)C(=O)N[C@H]1CC[C@H](CCN2CCN(c3cccc(Cl)c3Cl)CC2)CC1 [cariprazine],HTR2A modulated by drug in opposite direction to suicide,[1]; [5],"cariprazine,"
same,HTR2A modulated by drug in opposite direction to suicide,[1]; [6],"cariprazine,"
same,HTR2A modulated by drug in opposite direction to suicide,[1]; [7],"cariprazine,"
same,HTR2A modulated by drug in opposite direction to suicide,[1]; [8],"cariprazine,"
Tocilizumab,Step 6 Drugs that Modulate the Biomarker in Opposite Direction to Suicide,[1]; biomarker IL6 (interleukin 6),Tocilizumab
C[C@H]1Oc2c(cccc2N2CCN(CCCc3c[nH]c4ccc(F)cc34)CC2)NC1=O [SLV-314],SLC6A4 modulated by drug in opposite direction to suicide,[1]; [13],SLV-314
same,SLC6A4 modulated by drug in opposite direction to suicide,[1]; [14],SLV-314
tocilizumab,IL6 modulated by drug in opposite direction to suicide,"[1]; B. Top Biomarkers in Males, direction of change in suicidality I, AP/2","tocilizumab,"
O=C1CCc2ccc(OCCCCN3CCN(c4cccc(Cl)c4Cl)CC3)cc2N1 [aripiprazole],Drugs that Modulate the Biomarker in Opposite Direction to Suicide,"[2]; HTR2A, 244130_at",aripiprazole
CN(C)CCCN1c2ccccc2CCc2ccc(Cl)cc21 [clomipramine],Drugs that Modulate the Biomarker in Opposite Direction to Suicide,"[2]; HTR2A, 244130_at",clomipramine
CN1CCCCC1CCN1c2ccccc2Sc2ccc([S+](C)[O-])cc21 (centres unmarked) [mesoridazine],Drugs that Modulate the Biomarker in Opposite Direction to Suicide,"[2]; HTR2A, 244130_at",mesoridazine
CN1CCN2c3ncccc3Cc3ccccc3C2C1 (centres unmarked) [Mirtazapine],Step 6 Drugs that Modulate the Biomarker in Opposite Direction to Suicide,[1]; [4],Mirtazapine
CN1C[C@H](C(=O)N[C@]2(C)O[C@@]3(O)[C@@H]4CCCN4C(=O)[C@H](Cc4ccccc4)N3C2=O)C=C2c3cccc4[nH]cc(c34)C[C@H]21 [ergotamine],Drugs that Modulate the Biomarker in Opposite Direction to Suicide,"[2]; HTR2A, 244130_at",ergotamine
Cc1ccc(C23CNCC2C3)cc1 (centres unmarked) [bicifadine],SLC6A4 modulated by drug in opposite direction to suicide,[1]; [13],"bicifadine,"
same,SLC6A4 modulated by drug in opposite direction to suicide,[1]; [14],"bicifadine,"
CN[C@@H](C)Cc1ccccc1 [Methamphetamine],Drugs that Modulate the Biomarker in Opposite Direction to Suicide,"[2]; CRYAB, 209283_at",Methamphetamine
CCc1nn(CCCN2CCN(c3cccc(Cl)c3)CC2)c(=O)n1CCOc1ccccc1 [Nefazodone],Step 6 Drugs that Modulate the Biomarker in Opposite Direction to Suicide,[1]; [4],Nefazodone
CC#C[C@]1(O)CC[C@H]2[C@@H]3CCC4=CC(=O)CCC4=C3[C@@H](c3ccc(N(C)C)cc3)C[C@@]21C [Mifepristone],BDNF modulated by drug in opposite direction to suicide,[1]; [6],Mifepristone
same,BDNF modulated by drug in opposite direction to suicide,[1]; [11],Mifepristone
O=C1Cc2cc(CCN3CCN(c4nsc5ccccc45)CC3)c(Cl)cc2N1 [Ziprasidone],Step 6 Drugs that Modulate the Biomarker in Opposite Direction to Suicide,[1]; [4],Ziprasidone
Recombinant-methionyl human leptin,Step 6 Drugs that Modulate the Biomarker in Opposite Direction to Suicide,[1]; biomarker LEPR (leptin receptor),Recombinant-
CC[C@@H](CO)NC(=O)[C@@H]1C=C2c3cccc4c3c(cn4C)C[C@H]2N(C)C1 [methysergide],Drugs that Modulate the Biomarker in Opposite Direction to Suicide,"[2]; HTR2A, 244130_at",methysergide
COc1cc(C(C)=O)ccc1OCCCN1CCC(c2noc3cc(F)ccc23)CC1 [Iloperidone],HTR2A modulated by drug in opposite direction to suicide,[1]; [5],"Iloperidone,"
same,HTR2A modulated by drug in opposite direction to suicide,[1]; [6],"Iloperidone,"
same,HTR2A modulated by drug in opposite direction to suicide,[1]; [7],"Iloperidone,"
same,HTR2A modulated by drug in opposite direction to suicide,[1]; [8],"Iloperidone,"
CN1CC2c3ccccc3Oc3ccc(Cl)cc3C2C1 (centres unmarked) [asenapine],HTR2A modulated by drug in opposite direction to suicide,[1]; [5],"asenapine,"
same,HTR2A modulated by drug in opposite direction to suicide,[1]; [6],"asenapine,"
same,HTR2A modulated by drug in opposite direction to suicide,[1]; [7],"asenapine,"
same,HTR2A modulated by drug in opposite direction to suicide,[1]; [8],"asenapine,"
O=C1Cc2cc(CCN3CCN(c4nsc5ccccc45)CC3)c(Cl)cc2N1 [ziprasidone],Drugs that Modulate the Biomarker in Opposite Direction to Suicide,"[2]; HTR2A, 244130_at",ziprasidone
CN(C)CCC=C1c2ccccc2COc2ccccc21 [doxepin],Drugs that Modulate the Biomarker in Opposite Direction to Suicide,"[2]; HTR2A, 244130_at",doxepin
CSc1ccc2c(c1)N(CCC1CCCCN1C)c1ccccc1S2 (centres unmarked) [thioridazine],Drugs that Modulate the Biomarker in Opposite Direction to Suicide,"[2]; HTR2A, 244130_at",thioridazine
O=C1NCCN1CCN1CCC(c2cn(-c3ccc(F)cc3)c3ccc(Cl)cc23)CC1 [sertindole],Drugs that Modulate the Biomarker in Opposite Direction to Suicide,"[2]; HTR2A, 244130_at",sertindole
Fc1ccc([C@@H]2CCNC[C@H]2COc2ccc3c(c2)OCO3)cc1 [Paroxetine],CCL28 modulated by drug in opposite direction to suicide,"[1]; A. Top Universal Biomarkers, direction of change in suicidality (D), AP/4",Paroxetine
CCN(CC)C(=O)N[C@H]1C=C2c3cccc4[nH]cc(c34)C[C@H]2N(C)C1 [lisuride],Drugs that Modulate the Biomarker in Opposite Direction to Suicide,"[2]; HTR2A, 244130_at",lisuride
CNCCCN1c2ccccc2CCc2ccccc21 [desipramine],Drugs that Modulate the Biomarker in Opposite Direction to Suicide,"[2]; HTR2A, 244130_at",desipramine
